# Source: patent publication US10202658B2, “Methods for determining hypersusceptibility of HIV-1 to non-nucleoside reverse transcriptase inhibitors” (Monogram Biosciences, Inc., priority 2005, dated 2019)
# Tested on: HIV-1 clinical isolates grouped by RT mutations
# Assay: Pairwise comparison of NNRTI fold change between groups of clinical isolates (Student's T-test, Bonferroni's Multiple Comparison Test)
# Assay type: cell-based
# Procedure: This example provides methods and compositions for identifying mutations that correlate with hypersusceptibility to a NNRTI. Resistance test vectors were constructed and used as described in Example 1. Resistance test vectors derived from patient samples or clones derived from the resistance test vector pools were tested in a resistance assay to determine accurately and quantitatively the relative EFV, DLV, or NVP resistance or susceptibility compared to the median observed resistance or susceptibility.
# To identify mutations associated with NNRTI hypersusceptibility, the following analysis was performed. […] The TAMs referenced in. Table 1 include M41L, D67N, K70R, L210W, T215FY, and K219X, while the NAMs referenced include K65R, T69X, L74IV, V75X, and M184IV. Isolates without NRTI, NNRTI or PI mutations served as a wild type (WT) reference group. Further comparison groups comprised isolates with three TAMS including T215Y (+/−H208Y, +/−V118I) or three TAMS including K70R. Scatter plots and statistical tests (See FIGS. 1-6) were generated using Prism 4.0 (GraphPad, San Diego, Calif.)
# In addition, a pairwise comparison between two sets of data was conducted using Bonferroni's Multiple Comparison Test using the Prism 4.0 software. The results of the comparison are presented in Tables 2, 3, and 4, appended to the end of this document. Samples with K65R, K65R+M184V, or 2 TAMs in combination with T215Y had over 40% with EFV FC<0.4.
smiles,measurement,setting,value
"Cc1ccnc2c1NC(=O)c1cccnc1N2C1CC1 [NVP, nevirapine]",Mean Diff. of fold change,1 NAM vs 2 NAMs,0.2694
same,Mean Diff. of fold change,1 NAM vs 3 NAMs,0.221
same,Mean Diff. of fold change,1 NAM vs K65R,0.3361
same,Mean Diff. of fold change,1 NAM vs K65R + M184V,0.3786
same,Mean Diff. of fold change,1 NAM vs K70R_3_TAMs,0.08835
same,Mean Diff. of fold change,1 NAM vs M184V,−0.01357
same,Mean Diff. of fold change,1 NAM vs T69,−0.03843
same,Mean Diff. of fold change,1 NAM vs T215Y_3_TAMs,0.211
same,Mean Diff. of fold change,1 NAM vs T215Y_3_TAMs_118,0.2013
same,Mean Diff. of fold change,1 NAM vs T215Y_3_TAMs_208,0.2552
same,Mean Diff. of fold change,1 NAM vs T215Y_3_TAMs_no118,0.2175
same,Mean Diff. of fold change,1 NAM vs T215Y_3_TAMs_no208,0.204
same,Mean Diff. of fold change,2 NAMs vs 3 NAMs,−0.04846
same,Mean Diff. of fold change,2 NAMs vs K65R,0.06669
same,Mean Diff. of fold change,2 NAMs vs K65R + M184V,0.1092
same,Mean Diff. of fold change,2 NAMs vs K70R_3_TAMs,−0.1811
same,Mean Diff. of fold change,2 NAMs vs M184V,−0.283
same,Mean Diff. of fold change,2 NAMs vs T69,−0.3079
same,Mean Diff. of fold change,2 NAMs vs T215Y_3_TAMs,−0.05842
same,Mean Diff. of fold change,2 NAMs vs T215Y_3_TAMs_118,−0.06817
same,Mean Diff. of fold change,2 NAMs vs T215Y_3_TAMs_208,−0.01419
same,Mean Diff. of fold change,2 NAMs vs T215Y_3_TAMs_no118,−0.05192
same,Mean Diff. of fold change,2 NAMs vs T215Y_3_TAMs_no208,−0.06547
same,Mean Diff. of fold change,3 NAMs vs K65R,0.1151
same,Mean Diff. of fold change,3 NAMs vs K65R + M184V,0.1577
same,Mean Diff. of fold change,3 NAMs vs K70R_3_TAMs,−0.1326
same,Mean Diff. of fold change,3 NAMs vs M184V,−0.2345
same,Mean Diff. of fold change,3 NAMs vs T69,−0.2594
same,Mean Diff. of fold change,3 NAMs vs T215Y_3_TAMs,−0.009962
same,Mean Diff. of fold change,3 NAMs vs T215Y_3_TAMs_118,−0.01971
same,Mean Diff. of fold change,3 NAMs vs T215Y_3_TAMs_208,0.03427
same,Mean Diff. of fold change,3 NAMs vs T215Y_3_TAMs_no118,−0.003462
same,Mean Diff. of fold change,3 NAMs vs T215Y_3_TAMs_no208,−0.01701
same,Mean Diff. of fold change,K65R + M184V vs K70R_3_TAMs,−0.2903
same,Mean Diff. of fold change,K65R + M184V vs T215Y_3_TAMs,−0.1676
same,Mean Diff. of fold change,K65R + M184V vs T215Y_3_TAMs_118,−0.1774
same,Mean Diff. of fold change,K65R + M184V vs T215Y_3_TAMs_208,−0.1234
same,Mean Diff. of fold change,K65R + M184V vs T215Y_3_TAMs_no118,−0.1611
same,Mean Diff. of fold change,K65R + M184V vs T215Y_3_TAMs_no208,−0.1747
same,Mean Diff. of fold change,K65R vs K65R + M184V,0.04252
same,Mean Diff. of fold change,K65R vs K70R_3_TAMs,−0.2478
same,Mean Diff. of fold change,K65R vs M184V,−0.3497
same,Mean Diff. of fold change,K65R vs T69,−0.3746
same,Mean Diff. of fold change,K65R vs T215Y_3_TAMs,−0.1251
same,Mean Diff. of fold change,K65R vs T215Y_3_TAMs_118,−0.1349
same,Mean Diff. of fold change,K65R vs T215Y_3_TAMs_208,−0.08088
same,Mean Diff. of fold change,K65R vs T215Y_3_TAMs_no118,−0.1186
same,Mean Diff. of fold change,K65R vs T215Y_3_TAMs_no208,−0.1322
same,Mean Diff. of fold change,K70R_3_TAMs vs T215Y_3_TAMs_118,0.1129
same,Mean Diff. of fold change,K70R_3_TAMs vs T215Y_3_TAMs_no118,0.1292
same,Mean Diff. of fold change,M184V vs K65R + M184V,0.3922
same,Mean Diff. of fold change,M184V vs K70R_3_TAMs,0.1019
same,Mean Diff. of fold change,M184V vs T69,−0.02486
same,Mean Diff. of fold change,M184V vs T215Y_3_TAMs,0.2246
same,Mean Diff. of fold change,M184V vs T215Y_3_TAMs_118,0.2148
same,Mean Diff. of fold change,M184V vs T215Y_3_TAMs_208,0.2688
same,Mean Diff. of fold change,M184V vs T215Y_3_TAMs_no118,0.2311
same,Mean Diff. of fold change,M184V vs T215Y_3_TAMs_no208,0.2175
same,Mean Diff. of fold change,T69 vs K65R + M184V,0.4171
same,Mean Diff. of fold change,T69 vs K70R_3_TAMs,0.1268
same,Mean Diff. of fold change,T69 vs T215Y_3_TAMs,0.2494
same,Mean Diff. of fold change,T69 vs T215Y_3_TAMs_118,0.2397
same,Mean Diff. of fold change,T69 vs T215Y_3_TAMs_208,0.2937
same,Mean Diff. of fold change,T69 vs T215Y_3_TAMs_no118,0.2559
same,Mean Diff. of fold change,T69 vs T215Y_3_TAMs_no208,0.2424
same,Mean Diff. of fold change,T215Y_3_TAMs vs K70R_3_TAMs,−0.1227
same,Mean Diff. of fold change,T215Y_3_TAMs vs T215Y_3_TAMs_118,−0.00975
same,Mean Diff. of fold change,T215Y_3_TAMs vs T215Y_3_TAMs_208,0.04423
same,Mean Diff. of fold change,T215Y_3_TAMs vs T215Y_3_TAMs_no118,0.0065
same,Mean Diff. of fold change,T215Y_3_TAMs vs T215Y_3_TAMs_no208,−0.007051
same,Mean Diff. of fold change,T215Y_3_TAMs_208 vs K70R_3_TAMs,−0.1669
same,Mean Diff. of fold change,T215Y_3_TAMs_208 vs T215Y_3_TAMs_118,−0.05398
same,Mean Diff. of fold change,T215Y_3_TAMs_208 vs T215Y_3_TAMs_no118,−0.03773
same,Mean Diff. of fold change,T215Y_3_TAMs_208 vs T215Y_3_TAMs_no208,−0.05128
same,Mean Diff. of fold change,T215Y_3_TAMs_no118 vs T215Y_3_TAMs_118,−0.01625
same,Mean Diff. of fold change,T215Y_3_TAMs_no208 vs K70R_3_TAMs,−0.1156
same,Mean Diff. of fold change,T215Y_3_TAMs_no208 vs T215Y_3_TAMs_118,−0.002699
same,Mean Diff. of fold change,T215Y_3_TAMs_no208 vs T215Y_3_TAMs_no118,0.01355
same,mean fold change (FC) compared to the WT population,"all groups containing NAMs or the combination of TAMs shown in Table 1, p<0.0001, Student's T-test",significantly lower
same,Mean Diff. of fold change,wt vs 1 NAM,0.1982
same,Mean Diff. of fold change,wt vs 2 NAMs,0.4677
same,Mean Diff. of fold change,wt vs 3 NAMs,0.4192
same,Mean Diff. of fold change,wt vs K65R,0.5344
same,Mean Diff. of fold change,wt vs K65R + M184V,0.5769
same,Mean Diff. of fold change,wt vs K70R_3_TAMs,0.2866
same,Mean Diff. of fold change,wt vs M184V,0.1847
same,Mean Diff. of fold change,wt vs T69,0.1598
same,Mean Diff. of fold change,wt vs T215Y_3_TAMs,0.4092
same,Mean Diff. of fold change,wt vs T215Y_3_TAMs_118,0.3995
same,Mean Diff. of fold change,wt vs T215Y_3_TAMs_208,0.4535
same,Mean Diff. of fold change,wt vs T215Y_3_TAMs_no118,0.4157
same,Mean Diff. of fold change,wt vs T215Y_3_TAMs_no208,0.4022
